# Test results published in patent publication EP0019589A1, “Tripeptide derivatives and their use in a process for determining enzymes” (Pentapharm A.G., priority 1979, dated 1980).
# Non-standard residues stand in square brackets, D forms with d. Residues, ends and D or L forms follow the SMILES beside them. *: point of attachment. Cha = N[C@@H](CC1CCCCC1)C(=O)O; dChg = N[C@@H](C(=O)O)C1CCCCC1; pNA = O=[N+]([O-])c1ccc(N*)cc1; AMC = Cc1cc(=O)oc2cc(N*)ccc12; βNA = c1ccc2cc(N*)ccc2c1
# Tests used:
# Assay type in all cases: biochemical
# [1] = target: T1, Urinkallikrein (Homo sapiens, UniProt P06870); test: Cleavage of chromogenic substrate by urinary kallikrein in human urine; settings: 1 ml human urine (pooled morning urine of healthy persons), per min; Substratkonzentration 2 x 10^-4 molar
# T1 construct: 1 ml Urin und 1 ml TRIS-Imidazol-Puffer mit pH 7,9; from tissue; host or cells: human urine
# Protocol: 1. Bestimmung von Urinkallikrein.
# 1 ml Urin und 1 ml TRIS-Imidazol-Puffer mit pH 7,9 und Ionenstärke 1,0 werden 5 Min. bei 37°C inkubiert undcänn zentrifugiert, um Sedimente zu entfernen.
# In einer-Plastikküvette werden 1,4 ml dest. H20 von 37°C und 0,4 ml des Zentrifugats gut gemischt. Zu dieser Mischung gibt man 0,2 ml einer 2 x 10^-3 molaren wässrigen Substratlösung und durchmischt die Komponenten schnell. Dieses Gemisch wird genau 15 Min. bei 37°C inkubiert. Dann wird dem Reaktionsgemisch 0,2 ml Eisessig zugemischt, um die Enzymreaktion zu unterbrechen. Zur Farbmessung verwendet man eine Vergleichsprobe (Blindprobe), die aus den gleichen Komponenten zusammengesetzt ist, wobei jedoch der Eisessig vor Zugabe des Substrates zugesetzt wird, um die Enzymreaktion zu verhindern. Dann wird bei 405 nm photometrisch oder spektrophotometrisch die Menge der gebildeten farbigen Verbindung RNH 2 aus der Differenz zwischen der Blindprobe und der zu bestimmenden Probe ermittelt. Aus dem ermittelten Wert wird die Urinkallikreinaktivität im Urin nach der folgenden Formel berechnet: [formula] • Δ OD = Zunahme der optischen Dichte bei 405 nm während 15 Min. • V = Totalvolumen des Bestimmungsansatzes = 2,2 ml • 1000 = Umrechnungsfaktor zur Umwandlung von U in mU • F = Verdünnungsfaktor des Urins (2) • v = Volumen der Probe = 0,4 ml • ε = Extinktionskoeffizient dividiert durch 1000 = 10,4
# Bei der oben beschriebenen Bestimmungsmethode misst man somit die Summe der Aktivitäten von Urinkallikrein und Urokinase. Um die genaue Urinkallikreinaktivität zu erhalten, muss man die Urokinaseaktivität abziehen, welche dadurch bestimmt werden kann, dass man in einem Vergleichsversuch durch Zugabe von 0,075 Einheiten Trypsininhibitor (Trypsininhibitor aus Rinderlunge) pro ml Puffer die Urinkallikreinaktivität vollständig hemmt und nur die Urokinaseaktivität misst.
# (§1) Bei der Messung des durch die enzymatische Hydrolyse des Substrates gebildeten Spaltproduktes RrNH2 geht man von der Voraussetzung aus, dass das Spaltprodukt ein UV-Spektrum besitzt, das von demjenigen des Substrates verschieden und in Richtung höherer Wellenlängen verschoben ist. Die Absorption des Substrates bei 405 nm ist praktisch Null. p-Nitroanilin als Spaltprodukt weist ein Absorptionsmaximum bei 380 nm und einen molaren Extinktionskoeffizienten von 13'200 auf. Bei 405 nm ist der Extinktionskoeffizient nur wenig niedriger, d.h. […] Der Grad der enzymatischen Hydrolyse des Substrates, welcher der Menge des abgespaltenen p-Nitroanilins proportional ist, lässt sich durch spektrophotometrische Messung bei 405 nm bestimmen. Auch bei Anwesenheit eines Ueberschusses an Substrat wird die Messung bei 405 nm nicht gestört.
# (§2) Bei den Substraten, die als chromogene Gruppe eine 2-Naphthylamino-, 4-Methoxy-2-naphthylamino-, 4-Methyl-cumaryl-(7)-amino- oder 1,3-Di(methoxycarbonyl)-phenyl-(5)-amino-Gruppe enthalten, wird die Menge des Spaltproduktes R-NH2 durch Fluoreszenzspektrophotometrie gemessen. In einem aus Enzym, Puffer und Substrat bestehenden Testsystem misst man kontinuierlich das energieärmere emittierte Licht bei 400-470 nm, nachdem man das gebildete fluoreszierende Spaltprodukt mit energiereicherem Licht erregt hat. Die pro Zeiteinheit gebildete Menge Spaltprodukt ist ein Mass für die vorhandene Enzymaktivität. 1 µMol Spaltprodukt pro Minute entspricht definitionsgemäss 1 Enzym-Einheit, bezogen auf ein gegebenes Substrat.
# [2] = target: T2, Submandibularis-Kallikrein (Homo sapiens, UniProt P06870); test: Cleavage of chromogenic substrate by submandibular (glandular) kallikrein in human sputum; settings: 1 ml human sputum, per min; Substratkonzentration 2 x 10^-4 molar
# T2 construct: Man mischt 0,5 ml Sputum mit 2 ml TRIS-Imidazol-Puffer; from tissue; host or cells: human sputum
# Protocol: 2. Bestimmung des Glandulärkallikreins im Sputum: • Man mischt 0,5 ml Sputum mit 2 ml TRIS-Imidazol-Puffer (Ionenstärke 1,0) und präinkubiert die Mischung 5 Min. bei 37°C. Das Inkubat wird zentrifugiert. In eine Testküvette wird 1,5 ml dest. H2O von 37°C vorgelegt und mit 0,25 ml des Zentrifugats versetzt. Die Komponenten werden gut gemischt. Dann wird 0,2 ml 2 x 10-^3 molare wässrige Substratlösung zugesetzt und gemischt. Dann wird bei 405 nm die Extinktions- änderung kontinuierlich mittels eines Schreibers während 5-10 Min. verfolgt. Aus dem ermittelten Δ OD pro Min. wird mittels der nachstehenden Formel die Kallikreinaktivität pro ml Sputum in mU errechnet: [formula] • F = 5 • V = 1,95 • v = 0,25 • 1 U (Einheit) = Enzymmenge, die während 1 Min. 1 µMol Substrat unter optimalen oder sonst festgelegten Bedingungen in Bezug auf pH, Ionenstärke, Temperatur und Substratkonzentration zu spalten vermag
# as §1, with “gestört. […]” for “gestört.”
# [3] = target: T3, Humanthrombin (Homo sapiens, UniProt P00734); test: Cleavage of chromogenic substrate by human NIH thrombin; settings: 1 NIH-Einheit human thrombin, per min; Substratkonzentration 2 x 10^-4 molar
# T3 construct: Humanplasmin und hu-manem NIH-Thrombin
# Text: as §1, §2
# [4] = target: T4, Humanplasmin (Homo sapiens, UniProt P00747); test: Cleavage of chromogenic substrate by human plasmin; settings: 1 CU-Einheit human plasmin, per min; Substratkonzentration 2 x 10^-4 molar
# T4 construct: da bei der Aktivierung aus 1 Molekül Plasminogen 1 Molekül Plasmin entsteht
# Protocol: 3. Bestimmung von Plasmin:
# Man mischt 1,7 ml TRIS-Imidazol-Puffer (pH 7,5, Ionenstärke 0,2) bei 37°C mit 0,1 ml einer Lösung von Plasmin in 25%igem Glycerin und inkubiert die Mischung während 1 Min. bei 37°C. Dann gibt man der Mischung 0,2 ml einer wässrigen 2 x 10^-3 molaren Substxatlösung von 37°C zu und durchmischt das Ganze schnell. Man ermittelt dann kontinuierlich die pro Zeiteinheit aus dem Substrat freigesetzte Menge des Spaltproduktes R-NH2. Aus dem pro Min. ermittelten Wert berechnet man dann die Plasminaktivität pro ml Probe in mU nach der folgenden Formel: [formula] • ΔE = pro Min. freigesetzte Menge des Spaltproduktes • V = Totalvolumen des Testansatzes • v = Volumen der Probe • = Extinktionskoeffizient dividiert durch 1000
# as §1, §2
# T1 sequence (P06870 25-262): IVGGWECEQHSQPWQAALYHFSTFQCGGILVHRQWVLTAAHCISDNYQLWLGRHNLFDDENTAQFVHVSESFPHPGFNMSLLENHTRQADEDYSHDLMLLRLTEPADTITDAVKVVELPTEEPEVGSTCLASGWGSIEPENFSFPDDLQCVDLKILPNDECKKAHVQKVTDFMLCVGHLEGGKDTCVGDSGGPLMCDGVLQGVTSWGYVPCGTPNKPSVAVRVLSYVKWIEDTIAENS
# T2 sequence (P06870 25-262): as above
# T4 sequence (P00747 581-810 limits assumed): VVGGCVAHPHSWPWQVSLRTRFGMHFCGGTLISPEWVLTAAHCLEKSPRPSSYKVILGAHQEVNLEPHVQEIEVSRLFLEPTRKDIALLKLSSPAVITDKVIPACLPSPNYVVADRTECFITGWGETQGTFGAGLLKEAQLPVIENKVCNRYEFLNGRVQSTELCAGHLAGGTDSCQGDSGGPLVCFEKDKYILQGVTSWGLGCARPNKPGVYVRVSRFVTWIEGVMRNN
# T4 sequence (P00747 97-580 partner limits assumed): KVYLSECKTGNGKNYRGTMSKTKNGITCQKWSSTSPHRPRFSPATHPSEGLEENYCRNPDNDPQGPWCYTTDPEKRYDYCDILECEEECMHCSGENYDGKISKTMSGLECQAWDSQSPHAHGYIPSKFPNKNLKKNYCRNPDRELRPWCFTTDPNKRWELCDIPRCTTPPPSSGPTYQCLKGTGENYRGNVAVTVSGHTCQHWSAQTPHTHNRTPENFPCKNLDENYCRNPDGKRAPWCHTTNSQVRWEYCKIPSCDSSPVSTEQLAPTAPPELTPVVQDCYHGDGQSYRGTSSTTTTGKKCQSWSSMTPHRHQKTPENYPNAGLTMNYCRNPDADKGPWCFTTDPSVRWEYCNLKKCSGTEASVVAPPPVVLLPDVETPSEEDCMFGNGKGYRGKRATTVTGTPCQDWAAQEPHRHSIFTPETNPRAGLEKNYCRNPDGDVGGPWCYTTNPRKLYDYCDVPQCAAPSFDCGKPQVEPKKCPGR
Compound,Menge des durch 1 ml Humanurin pro Min. freigesetzten Spaltproduktes R-NH2 in Nanomol (Urinkallikrein) [1],Menge des durch 1 ml Humansputum pro Min. freigesetzten Spaltproduktes R-NH2 in Nanomol (Submandibularis-Kallikrein) [2],Menge des durch 1 NIH-Einheit Thrombin pro Min. freigesetzten Spaltproduktes R-NH2 in Nanomol (Humanthrombin) [3],Menge des durch 1 CU-Einheit Humanplasmin pro Min. freigesetzten Spaltproduktes R-NH2 in Nanomol (Humanplasmin) [4] [Nanomol]
2HBr.H-D-CHT-Phe-Arg-pNA [Beispiel 17],"0,77 Nanomol","7,4 Nanomol","18,7 Nanomol",860
"CC(C)C[C@H](NC(=O)[C@H](N)C(C)C)C(=O)N[C@@H](CCCNC(=N)N)C(=O)Nc1ccc([N+](=O)[O-])cc1 [A, 2HCl.H-D-Val-Leu-Arg-pNA, reference compound] (H-[dV]-Leu-Arg-pNA)","0,90 Nanomol","12,2 Nanomol",,83
"CC(C)C[C@H](NC(=O)[C@H](N)C(C)C)C(=O)N[C@@H](CCCCN)C(=O)Nc1ccc([N+](=O)[O-])cc1 [B, 2HCl.H-D-Val-Leu-Lys-pNA, reference compound] (H-[dV]-Leu-Lys-pNA)","0,30 Nanomol","5,7 Nanomol",,347
"NCCCC[C@H](NC(=O)[C@H](Cc1ccccc1)NC(=O)[C@H](N)C1CCCCC1)C(=O)Nc1ccc([N+](=O)[O-])cc1 [Beispiel 2, 2HBr.H-D-CHG-Phe-Lys-pNA] (H-[dChg]-Phe-Lys-pNA)","0,80 Nanomol","25,6 Nanomol",,1150
"Cc1cc(=O)oc2cc(NC(=O)[C@H](CCCNC(=N)N)NC(=O)[C@H](CC3CCCCC3)NC(=O)[C@H](N)C(C)C)ccc12 [Beispiel 3, 2HBr.H-D-Val-CHA-Arg-MCA] (H-[dV]-[Cha]-Arg-{AMC})","2,55 Nanomol","31,2 Nanomol",,430
"Cc1cc(=O)oc2cc(NC(=O)[C@H](CCCCN)NC(=O)[C@H](Cc3ccccc3)NC(=O)[C@H](N)C3CCCCC3)ccc12 [Beispiel 4, 2HBr.H-D-CHG-Phe-Lys-MCA] (H-[dChg]-Phe-Lys-{AMC})","0,60 Nanomol","15,7 Nanomol",,1120
"COC(=O)c1cc(NC(=O)[C@H](CCCNC(=N)N)NC(=O)[C@H](CC2CCCCC2)NC(=O)[C@H](N)C(C)C)cc(C(=O)OC)c1 [Beispiel 5, 2HBr.H-D-Val-CHA-Arg-DPA]","2,42 Nanomol","28,5 Nanomol",,408
"COC(=O)c1cc(NC(=O)[C@H](CCCCN)NC(=O)[C@H](Cc2ccccc2)NC(=O)[C@H](N)C2CCCCC2)cc(C(=O)OC)c1 [Beispiel 6, 2HBr.H-D-CHG-Phe-Lys-DPA]","0,72 Nanomol","24,8 Nanomol",,1215
"CC(C)[C@@H](N)C(=O)N[C@@H](CC1CCCCC1)C(=O)N[C@@H](CCCNC(=N)N)C(=O)Nc1ccc2ccccc2c1 [Beispiel 7, 2HBr.H-D-Val-CHA-Arg-2-NA] (H-[dV]-[Cha]-Arg-βNA)","2,55 Nanomol","31,1 Nanomol",,428
"NCCCC[C@H](NC(=O)[C@H](Cc1ccccc1)NC(=O)[C@H](N)C1CCCCC1)C(=O)Nc1ccc2ccccc2c1 [Beispiel 8, 2HBr.H-D-CHG-Phe-Lys-2-NA] (H-[dChg]-Phe-Lys-βNA)","0,58 Nanomol","17,6 Nanomol",,1180
"COc1cc(NC(=O)[C@H](CCCNC(=N)N)NC(=O)[C@H](CC2CCCCC2)NC(=O)[C@H](N)C(C)C)cc2ccccc12 [Beispiel 9, 2HBr.H-D-Val-CHA-Arg-4-MeO-2-NA]","2,38 Nanomol","25,4 Nanomol",,388
"COc1cc(NC(=O)[C@H](CCCCN)NC(=O)[C@H](Cc2ccccc2)NC(=O)[C@H](N)C2CCCCC2)cc2ccccc12 [Beispiel 10, 2HBr.H-D-CHG-Phe-Lys-4-MeO-2-NA]","0,61 Nanomol","14,9 Nanomol",,1165
